The values below are quoted from earlier work in US20250099551A1, “THERMOSTABLE FORMULATION OF A21G HUMAN INSULIN” (priority 2018, published 2025).

The conditions of the series: 25° C.
Turning to `O=C(O)CN(CCN(CC(=O)O)CC(=O)O)CC(=O)O` [EDTA], the “Metal binding stability constant log K for zinc” value was 14.5.

For the compound `O=C(O)CN(CCOCCOCCN(CC(=O)O)CC(=O)O)CC(=O)O` [EGTA], the “Metal binding stability constant log K for zinc” value is recorded as 12.6.

On to `O=C(O)CC(O)(CC(=O)O)C(=O)O` [citrate], for which the “Metal binding stability constant log K for zinc” value is 4.93.

Consider `N[C@@H](Cc1c[nH]cn1)C(=O)O` [histidine], for which the “Metal binding stability constant log K for zinc” value is recorded as 6.91.
